Key:
[1] = tested on: fertilization capacity; experiment: Fertilization capacity, concentration dependence of cannabinoids; details: higher concentrations
[2] = tested on: mouse sperm; experiment: Mouse sperm pre-treated with drug, then artificial insemination into the mouse uterus; fertilization and embryo development scored; type: in vivo
Description: Studies show the cannabinoid implications in vivo in the mouse model. In separate experiments, mouse sperm are pre-treated with Meth-anandamide or AM-1346 and then the mouse sperm are inseminated into the mouse uterus (artificial insemination).
Each egg could be scored as 1-cell, 2-cell, 3-4 cell, 5-8 cell, morula, blastocysts or degenerated. Brief exposure of the sperm to the drug before insemination produces significant inhibition of 5 parameters. Compared to Control, the treated animals ovulate fewer ova (p<0.01, t-test). […] By Day 2, treatment produces a lower % of 2-cell eggs—again, fewer eggs are cleaving. […] The drug severely impairs fertilization and embryo development.

[3] = tested on: human sperm; experiment: Human sperm vigorous swimming (Hyperactivation, computer-tracking); type: cell-based
Description: Fertilization assays include changes in human sperm vigorous swimming (Hyperactivation, computer-tracking), changes in % moving, and changes in the ability of drug-treated sperm to complete the acrosome reaction, and ability to bind to the human egg cover (Hemizona assay).

[4] = sperm pre-treated with 100 nM, Day 1
[5] = sperm pre-treated with 100 nM, Day 3

SMILES	effect on fertilization capacity [1]	Number embryos per female ([2]; sperm pre-treated with 100 nM before insemination)	% ova as 1-cell on Day 1 [2, 4] [%]	Number of 2-cells on Day 1 [2, 4]	% embryos >2-cell on Day 3 [2, 5] [%]	% embryos degenerated on Day 3 [2, 5] [%]	vigorous swimming of human sperm [3]
CCCCC/C=C\C/C=C\C/C=C\C/C=C\CCCC(=O)NCCO [Anandamide, arachidonoyl-ethanolamide]	trends towards reduced fertilization capacity						
CCCCC/C=C\C/C=C\C/C=C\C/C=C\CCCC(=O)N[C@H](C)CO [Methanandamide, R-methanandamide]	biphasic effect: Higher concentrations produce inhibition	4.3 ± 0.7	91.3	0.6 ± 0.2	25.0	44.2	
CCCCC/C=C\C/C=C\C/C=C\C/C=C\CCCC(=O)NCc1ccoc1 [UCM]							blocks

— US8390681B1, “Computer assisted semen analyzer to analyze digital video clips received from a remote location” (LifeCell Dx, Inc., priority 2008, dated 2013)
